Measured values as given in article PMC5647335, “Controlling the bioactivity of a peptide hormone in vivo by reversible self-assembly” (Nature Communications, 2017).

Tested on: CHO-hGLP-1R cells
Assay type: cell-based, Chinese hamster
Settings: 48 h treatment, resazurin 5 h, fluorescence 590 nm; Oxm concentrations up to 1000-fold above the EC50; three independent experiments
Description: CHO-hGLP-1R cells in growth medium (DMEM, 10%FBS Sigma-Aldrich) were plated at 10,000 cells per well in 96-well black clear-bottom poly-D-lysine-coated microtiter plates (Corning, USA). […] Fluorescence emission was measured at 590 nm (560 nm excitation).

Cn1cc(C2=C(c3cn(CCCSC(=N)N)c4ccccc34)C(=O)NC2=O)c2ccccc21 [Ro-318220]
in vitro cytotoxicity (cell viability): expected curves of concentration vs. loss of cell viability

CN[C@@H]1C[C@H]2O[C@@](C)([C@@H]1OC)n1c3ccccc3c3c4c(c5c6ccccc6n2c5c31)C(=O)NC4 [staurosporine]
in vitro cytotoxicity (cell viability): expected curves of concentration vs. loss of cell viability
